This is an account of results in ChEMBL document CHEMBL1201862, “PubChem BioAssay data set” (2004).

Calls of active or inactive are those of the source.

One experiment deals with Phospholipase D1 (Homo sapiens, UniProt Q13393). In words: cellular phospholipase D1 inhibition IC50 – cell-based, dose response (AID 602151).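 Also: cellular PLD1 assay in Calu-1 cells stimulated with PMA.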 In kind it is functional.
A further experiment concerns the target Phospholipase D2 (Homo sapiens, UniProt O14939). In words: cellular phospholipase D2 inhibition IC50 – cell-based, dose response (AID 602147).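 Also: cellular assay in HEK293 cells overexpressing GFP-tagged PLD2.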 The class given is functional.
For the next experiment, the system named is HEK293. Put plainly: cells. The settings on record: Homo sapiens. In kind it is functional, cell-based.
The target in experiment [1] is Nuclear receptor subfamily 0 group B member 1 (Homo sapiens, UniProt P51843). In words: Luminescence-based cell-based high throughput dose response assay for inhibitors of the orphan nuclear receptor subfamily 0, group B, member 1 (DAX1; NR0B1). [Related pubchem assays (depositor defined):AID504766, AID504790]. In kind it is functional.
Sequence of Nuclear receptor subfamily 0 group B member 1 (P51843 whole entry): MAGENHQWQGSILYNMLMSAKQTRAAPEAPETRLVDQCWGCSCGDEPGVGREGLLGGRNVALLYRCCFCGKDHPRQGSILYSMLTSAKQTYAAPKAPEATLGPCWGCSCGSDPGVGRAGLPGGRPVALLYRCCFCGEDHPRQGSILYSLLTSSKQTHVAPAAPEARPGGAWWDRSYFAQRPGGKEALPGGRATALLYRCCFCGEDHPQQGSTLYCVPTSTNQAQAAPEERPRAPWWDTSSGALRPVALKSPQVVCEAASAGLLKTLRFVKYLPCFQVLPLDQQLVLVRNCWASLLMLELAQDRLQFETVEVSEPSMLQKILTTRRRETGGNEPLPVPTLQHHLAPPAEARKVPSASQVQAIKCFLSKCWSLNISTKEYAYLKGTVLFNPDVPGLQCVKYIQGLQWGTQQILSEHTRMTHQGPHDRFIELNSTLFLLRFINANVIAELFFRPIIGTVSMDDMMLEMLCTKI
Experiment [2] addresses Glucose-6-phosphate 1-dehydrogenase (Homo sapiens, UniProt P11413). Put plainly: inhibition of Homo sapiens G6PD, dose series – biochemical, fluorescence, selectivity assay for P. falciparum G6PD inhibitor project, dose response (AID 504792). In kind it is functional.
Another experiment has as its target Nonstructural protein 1 (Influenza A virus, UniProt Q194T2). The class given is functional, Influenza A virus (A/California/07/2009(H1N1)).
The next experiment concerns Vero. In words: viability of Vero cells under compound – cytotoxicity control for flavivirus capping enzyme inhibitors (AID 588742). The settings on record: Chlorocebus sabaeus. In kind it is functional.
Experiment [3] has as its target T1, Polyadenylate-binding protein 1 (Homo sapiens, UniProt P11940). Put plainly: MLLE binding blockers, Cy5 peptide tracer – biochemical, fluorescence polarization, Cy5-PAM2 peptide, secondary, miRNA deadenylation inhibitor project, dose response (AID 602260). In kind it is functional. The conditions noted are these: read-out: IC50_Mean. A general note: Fluorescence polarisation rises when a labelled molecule tumbles more slowly, as on binding a larger partner.

Experiment [4] has as its target T1, Polyadenylate-binding protein 1. In words: MLLE domain peptide-binding blockers, IC50 – biochemical, fluorescence polarization, FITC-PAM2 peptide, dose response (AID 602259). In kind it is functional. The conditions noted are these: read-out: IC50_Mean.
The target in experiment [5] is T2, Sentrin-specific protease 8 (Homo sapiens, UniProt Q96LD8).
T2 sequence (Q96LD8 whole entry): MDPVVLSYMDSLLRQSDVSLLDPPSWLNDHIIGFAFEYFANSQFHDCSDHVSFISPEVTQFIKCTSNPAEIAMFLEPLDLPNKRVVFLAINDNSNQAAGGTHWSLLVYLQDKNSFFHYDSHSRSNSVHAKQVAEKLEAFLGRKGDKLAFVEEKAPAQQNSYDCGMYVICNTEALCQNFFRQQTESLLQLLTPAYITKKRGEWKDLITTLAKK
The class given is functional.

Experiment [6] addresses T2, Sentrin-specific protease 8. In kind it is functional. The source holds these as a separate data set.
The test system of another experiment is Candida albicans. Put plainly: Candida growth inhibition combined with fluconazole – CaCi-2 strain, Alamar Blue, dry powder, set 3, dose response (AID 488907). The class given is functional, organism-based.
The target in experiment [7] is T3, SUMO-activating enzyme (Homo sapiens, UniProt Q9UBT2). Put plainly: blockers of UBC9-mediated SUMO conjugation – biochemical, AlphaScreen, SUMOylation inhibitor project, confirmation (AID 2018). In kind it is functional. For orientation: In Alpha technology, singlet oxygen from a donor bead excites a nearby acceptor bead.
T3 sequence (Q9UBE0 whole entry): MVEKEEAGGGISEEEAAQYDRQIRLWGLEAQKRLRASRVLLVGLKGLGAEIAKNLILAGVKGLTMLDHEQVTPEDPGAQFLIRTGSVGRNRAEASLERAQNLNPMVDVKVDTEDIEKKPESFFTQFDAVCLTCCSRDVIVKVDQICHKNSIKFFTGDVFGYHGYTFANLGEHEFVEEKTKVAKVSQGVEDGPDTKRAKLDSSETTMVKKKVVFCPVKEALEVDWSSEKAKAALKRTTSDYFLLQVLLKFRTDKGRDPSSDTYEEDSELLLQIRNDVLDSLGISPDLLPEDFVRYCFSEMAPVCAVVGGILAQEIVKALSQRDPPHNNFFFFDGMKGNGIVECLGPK
T3 sequence (Q9UBT2 whole entry): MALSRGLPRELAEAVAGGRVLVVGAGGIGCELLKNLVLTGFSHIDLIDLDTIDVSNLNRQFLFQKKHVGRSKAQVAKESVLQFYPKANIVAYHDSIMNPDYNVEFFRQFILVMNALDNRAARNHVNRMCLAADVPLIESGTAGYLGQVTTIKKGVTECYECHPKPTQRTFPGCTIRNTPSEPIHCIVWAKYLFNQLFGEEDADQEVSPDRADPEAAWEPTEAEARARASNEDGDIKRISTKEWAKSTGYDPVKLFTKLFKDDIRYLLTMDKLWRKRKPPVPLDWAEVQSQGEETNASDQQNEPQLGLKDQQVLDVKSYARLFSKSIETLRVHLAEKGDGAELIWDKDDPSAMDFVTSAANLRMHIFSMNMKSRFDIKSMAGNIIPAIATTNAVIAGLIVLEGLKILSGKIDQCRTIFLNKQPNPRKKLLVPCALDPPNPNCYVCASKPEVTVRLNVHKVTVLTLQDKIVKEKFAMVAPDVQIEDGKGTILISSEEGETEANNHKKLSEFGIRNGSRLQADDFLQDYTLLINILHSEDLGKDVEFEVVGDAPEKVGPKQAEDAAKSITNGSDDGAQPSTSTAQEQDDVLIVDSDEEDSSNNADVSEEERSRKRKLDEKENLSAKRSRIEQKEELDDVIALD
In experiment [8] the target is T3, SUMO-activating enzyme. Put plainly: blockers of SAE1/SAE2–UBC9 SUMO transfer – biochemical, HTRF, uHTS, primary screen (AID 2006). In kind it is protein-complex assay. Background: TR-FRET usually uses a lanthanide donor and a delayed reading to cut background.
The next experiment deals with SUMO E1/E2 (Homo sapiens, UniProt P63279+Q9UBE0+Q9UBT2). Put plainly: SAR analysis of SUMOylation using HTRF in an in-Vitro dose response assay. [Related pubchem assays (depositor defined):AID2006, AID2011, AID2018, AID2069, AID2658]. The class given is functional.
In another experiment the target is T4, Protein RecA (Mycobacterium tuberculosis, UniProt P9WHJ3).
T4 sequence (P9WHJ3 whole entry): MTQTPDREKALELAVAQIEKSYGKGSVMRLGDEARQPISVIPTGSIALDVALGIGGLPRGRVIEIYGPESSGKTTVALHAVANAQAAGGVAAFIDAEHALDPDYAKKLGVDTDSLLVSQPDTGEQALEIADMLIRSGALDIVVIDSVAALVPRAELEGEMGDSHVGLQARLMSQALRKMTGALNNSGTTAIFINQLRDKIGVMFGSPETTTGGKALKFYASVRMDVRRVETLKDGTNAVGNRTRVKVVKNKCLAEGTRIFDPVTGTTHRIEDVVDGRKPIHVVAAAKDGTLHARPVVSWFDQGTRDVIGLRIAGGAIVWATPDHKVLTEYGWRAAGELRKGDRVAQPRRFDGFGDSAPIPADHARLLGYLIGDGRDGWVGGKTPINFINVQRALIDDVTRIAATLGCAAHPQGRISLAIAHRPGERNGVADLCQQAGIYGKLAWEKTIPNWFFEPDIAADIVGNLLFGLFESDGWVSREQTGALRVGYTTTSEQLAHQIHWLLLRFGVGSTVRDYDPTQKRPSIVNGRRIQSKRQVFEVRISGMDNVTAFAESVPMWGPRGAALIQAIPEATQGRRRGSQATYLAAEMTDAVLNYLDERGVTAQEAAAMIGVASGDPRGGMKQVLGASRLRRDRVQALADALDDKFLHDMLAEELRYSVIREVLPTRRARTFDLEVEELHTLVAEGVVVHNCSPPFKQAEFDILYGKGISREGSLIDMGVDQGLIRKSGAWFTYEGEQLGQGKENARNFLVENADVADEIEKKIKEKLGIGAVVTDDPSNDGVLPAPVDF
Put plainly: Fluorescence Cell-Free Homogeneous Dose Retest to Identify Inhibitors of RecA-Intein Splicing Activity. [Related pubchem assays (depositor defined):AID2097, AID2223, AID489010, AID492950]. In kind it is functional.

For the next experiment, the target named is Genome polyprotein (dengue virus type 2, UniProt P29990). In words: flavivirus cap methylation enzyme inhibition – biochemical, confirmation dose response, primary screen (AID 588689). The class given is functional.
Sequence of Genome polyprotein (P29990 2492-3391 limits assumed): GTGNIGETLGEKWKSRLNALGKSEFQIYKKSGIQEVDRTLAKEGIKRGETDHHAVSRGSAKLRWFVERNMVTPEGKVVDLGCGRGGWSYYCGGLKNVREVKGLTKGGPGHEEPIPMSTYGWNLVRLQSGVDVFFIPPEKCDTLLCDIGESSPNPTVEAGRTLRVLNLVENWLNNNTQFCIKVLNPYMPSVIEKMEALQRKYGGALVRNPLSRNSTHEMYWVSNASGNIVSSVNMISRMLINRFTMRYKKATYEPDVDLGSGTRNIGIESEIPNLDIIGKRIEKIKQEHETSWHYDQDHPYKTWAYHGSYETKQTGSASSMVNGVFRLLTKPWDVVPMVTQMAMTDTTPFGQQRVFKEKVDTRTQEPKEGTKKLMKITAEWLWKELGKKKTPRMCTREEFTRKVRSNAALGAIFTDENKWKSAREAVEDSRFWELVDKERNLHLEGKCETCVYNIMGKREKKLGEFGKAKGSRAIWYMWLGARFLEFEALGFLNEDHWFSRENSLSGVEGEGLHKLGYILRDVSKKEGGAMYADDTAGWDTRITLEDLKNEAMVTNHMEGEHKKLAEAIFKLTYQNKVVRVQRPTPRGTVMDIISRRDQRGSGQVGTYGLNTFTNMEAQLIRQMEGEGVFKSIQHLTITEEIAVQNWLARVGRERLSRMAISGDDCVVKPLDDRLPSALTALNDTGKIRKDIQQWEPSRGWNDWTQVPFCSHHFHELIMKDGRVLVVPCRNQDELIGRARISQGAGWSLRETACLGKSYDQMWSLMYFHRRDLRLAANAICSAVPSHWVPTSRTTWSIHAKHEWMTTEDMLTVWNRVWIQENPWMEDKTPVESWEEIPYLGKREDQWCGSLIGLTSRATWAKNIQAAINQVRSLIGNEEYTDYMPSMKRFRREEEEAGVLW
The target in experiment [9] is T5, Histone-lysine N-methyltransferase NSD2 (Homo sapiens, UniProt O96028).
T5 sequence (O96028 whole entry): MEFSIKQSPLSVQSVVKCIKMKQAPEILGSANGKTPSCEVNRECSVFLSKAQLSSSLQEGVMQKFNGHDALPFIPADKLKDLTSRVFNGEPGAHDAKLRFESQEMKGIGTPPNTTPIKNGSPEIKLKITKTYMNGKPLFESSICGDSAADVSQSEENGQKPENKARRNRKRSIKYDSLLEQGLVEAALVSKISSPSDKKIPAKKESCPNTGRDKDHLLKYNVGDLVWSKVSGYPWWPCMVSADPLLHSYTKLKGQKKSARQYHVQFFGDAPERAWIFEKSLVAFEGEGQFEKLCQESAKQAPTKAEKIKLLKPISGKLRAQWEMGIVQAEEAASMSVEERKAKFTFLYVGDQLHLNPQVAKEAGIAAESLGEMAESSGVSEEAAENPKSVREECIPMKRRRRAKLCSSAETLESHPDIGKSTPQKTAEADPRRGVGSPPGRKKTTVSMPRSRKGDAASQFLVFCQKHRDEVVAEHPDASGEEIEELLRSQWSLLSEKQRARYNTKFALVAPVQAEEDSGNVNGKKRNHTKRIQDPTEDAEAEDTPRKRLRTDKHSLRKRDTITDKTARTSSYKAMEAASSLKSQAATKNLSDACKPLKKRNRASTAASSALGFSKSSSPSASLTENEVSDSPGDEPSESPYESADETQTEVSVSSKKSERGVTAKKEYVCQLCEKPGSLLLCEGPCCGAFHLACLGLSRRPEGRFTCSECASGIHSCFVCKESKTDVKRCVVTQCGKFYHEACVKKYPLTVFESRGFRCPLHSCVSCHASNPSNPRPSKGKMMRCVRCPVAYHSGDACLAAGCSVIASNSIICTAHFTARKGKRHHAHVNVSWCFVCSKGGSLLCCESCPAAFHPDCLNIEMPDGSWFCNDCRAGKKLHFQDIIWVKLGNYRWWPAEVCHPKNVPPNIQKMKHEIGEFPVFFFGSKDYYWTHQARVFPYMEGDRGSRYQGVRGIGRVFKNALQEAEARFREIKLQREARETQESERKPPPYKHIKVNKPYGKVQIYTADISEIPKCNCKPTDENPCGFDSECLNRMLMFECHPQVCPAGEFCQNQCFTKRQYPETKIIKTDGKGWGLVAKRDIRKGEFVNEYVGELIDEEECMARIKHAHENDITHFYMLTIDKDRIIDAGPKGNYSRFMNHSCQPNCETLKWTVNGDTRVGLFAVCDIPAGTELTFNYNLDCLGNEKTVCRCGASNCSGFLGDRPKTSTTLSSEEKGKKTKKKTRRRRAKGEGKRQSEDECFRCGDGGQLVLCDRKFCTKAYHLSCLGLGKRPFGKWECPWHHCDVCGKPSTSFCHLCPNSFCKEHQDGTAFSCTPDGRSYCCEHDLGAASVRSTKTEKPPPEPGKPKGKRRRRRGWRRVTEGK
In kind it is biochemical.

Sequence of Phospholipase D2 (O14939 whole entry): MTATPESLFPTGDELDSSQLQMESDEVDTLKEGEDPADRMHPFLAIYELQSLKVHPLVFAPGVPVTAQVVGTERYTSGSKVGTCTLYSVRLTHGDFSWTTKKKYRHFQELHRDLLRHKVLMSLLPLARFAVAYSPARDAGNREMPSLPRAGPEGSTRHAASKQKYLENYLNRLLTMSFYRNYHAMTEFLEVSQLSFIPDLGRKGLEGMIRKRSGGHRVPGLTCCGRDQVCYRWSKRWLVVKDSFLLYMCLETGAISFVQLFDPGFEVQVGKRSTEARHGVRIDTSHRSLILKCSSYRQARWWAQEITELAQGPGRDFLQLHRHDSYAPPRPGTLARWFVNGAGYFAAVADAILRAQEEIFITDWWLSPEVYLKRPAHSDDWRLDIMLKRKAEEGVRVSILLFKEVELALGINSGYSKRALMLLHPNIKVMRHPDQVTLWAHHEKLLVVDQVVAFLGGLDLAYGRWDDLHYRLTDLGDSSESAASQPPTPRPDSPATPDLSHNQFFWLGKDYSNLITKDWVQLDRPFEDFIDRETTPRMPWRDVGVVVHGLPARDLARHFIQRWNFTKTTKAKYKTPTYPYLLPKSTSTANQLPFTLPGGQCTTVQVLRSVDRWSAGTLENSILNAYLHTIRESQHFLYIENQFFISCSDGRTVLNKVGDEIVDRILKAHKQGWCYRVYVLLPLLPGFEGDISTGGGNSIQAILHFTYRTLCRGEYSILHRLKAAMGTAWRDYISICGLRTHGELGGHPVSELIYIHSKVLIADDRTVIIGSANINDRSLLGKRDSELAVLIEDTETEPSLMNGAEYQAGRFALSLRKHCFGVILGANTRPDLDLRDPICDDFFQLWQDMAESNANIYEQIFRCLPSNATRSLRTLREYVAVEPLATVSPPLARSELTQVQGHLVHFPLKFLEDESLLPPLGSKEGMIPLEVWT
T1 sequence (P11940 whole entry): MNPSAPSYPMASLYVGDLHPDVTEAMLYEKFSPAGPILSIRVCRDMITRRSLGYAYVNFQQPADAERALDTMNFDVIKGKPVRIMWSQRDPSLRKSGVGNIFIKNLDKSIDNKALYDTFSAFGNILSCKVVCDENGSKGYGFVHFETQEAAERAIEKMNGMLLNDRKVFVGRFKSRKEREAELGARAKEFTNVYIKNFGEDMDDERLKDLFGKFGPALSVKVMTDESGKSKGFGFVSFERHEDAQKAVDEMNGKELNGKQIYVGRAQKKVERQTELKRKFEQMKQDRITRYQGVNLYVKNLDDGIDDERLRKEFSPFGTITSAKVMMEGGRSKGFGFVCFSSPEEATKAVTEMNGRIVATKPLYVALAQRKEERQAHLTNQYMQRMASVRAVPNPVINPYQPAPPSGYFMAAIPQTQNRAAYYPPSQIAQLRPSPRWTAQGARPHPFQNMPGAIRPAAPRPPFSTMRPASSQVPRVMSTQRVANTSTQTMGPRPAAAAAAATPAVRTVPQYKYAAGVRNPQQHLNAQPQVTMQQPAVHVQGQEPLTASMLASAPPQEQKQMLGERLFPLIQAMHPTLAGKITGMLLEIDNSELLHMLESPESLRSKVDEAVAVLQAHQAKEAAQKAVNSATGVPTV
Sequence of Phospholipase D1 (Q13393 whole entry): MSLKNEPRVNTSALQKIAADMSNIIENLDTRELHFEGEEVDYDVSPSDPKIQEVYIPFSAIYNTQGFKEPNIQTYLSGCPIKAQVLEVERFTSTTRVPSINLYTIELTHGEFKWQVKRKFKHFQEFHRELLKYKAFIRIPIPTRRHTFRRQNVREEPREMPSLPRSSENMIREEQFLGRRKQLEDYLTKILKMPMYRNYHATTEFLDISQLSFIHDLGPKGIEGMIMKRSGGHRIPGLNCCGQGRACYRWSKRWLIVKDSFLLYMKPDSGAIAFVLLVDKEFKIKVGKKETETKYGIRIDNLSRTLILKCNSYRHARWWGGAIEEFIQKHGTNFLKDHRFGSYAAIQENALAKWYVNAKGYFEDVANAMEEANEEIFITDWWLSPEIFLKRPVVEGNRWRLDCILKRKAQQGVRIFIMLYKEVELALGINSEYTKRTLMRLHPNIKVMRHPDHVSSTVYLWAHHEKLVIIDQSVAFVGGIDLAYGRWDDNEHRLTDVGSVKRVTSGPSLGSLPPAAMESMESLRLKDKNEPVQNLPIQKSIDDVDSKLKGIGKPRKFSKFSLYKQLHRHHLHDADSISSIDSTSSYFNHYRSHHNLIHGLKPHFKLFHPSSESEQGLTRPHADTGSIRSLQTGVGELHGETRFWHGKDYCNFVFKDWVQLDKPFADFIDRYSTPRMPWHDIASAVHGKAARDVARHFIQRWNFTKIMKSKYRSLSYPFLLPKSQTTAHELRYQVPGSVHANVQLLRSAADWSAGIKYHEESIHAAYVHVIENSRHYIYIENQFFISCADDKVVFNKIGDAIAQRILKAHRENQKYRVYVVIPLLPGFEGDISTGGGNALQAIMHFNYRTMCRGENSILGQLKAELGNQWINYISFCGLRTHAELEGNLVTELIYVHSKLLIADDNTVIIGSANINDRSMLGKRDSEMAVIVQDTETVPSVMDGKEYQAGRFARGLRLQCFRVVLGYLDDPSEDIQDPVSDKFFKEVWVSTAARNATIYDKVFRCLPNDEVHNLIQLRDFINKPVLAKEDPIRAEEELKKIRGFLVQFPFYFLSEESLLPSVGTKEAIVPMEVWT

Consider `O=C(NCCN1CCC2(CC1)C(=O)NCN2c1ccccc1)c1cc2cc(F)ccc2[nH]1`, for which the figures for the IC50 at Phospholipase D1 and on Phospholipase D2 were 0.1 µM (active) and 0.07 µM (active), respectively.
Consider `N#C/C(=N/Nc1ccc([N+](=O)[O-])cc1)C(=N)N1CCCCC1`, for which the IC50 (in the experiment on HEK293; in experiment [1]) was > 67.5 µM (inactive) in each case.
In general, CC50 refers to the concentration that lowers cell viability or growth by half. For `Cc1cnc(C=NNC(N)=S)c2cccc(N)c12`, the IC50 in [2] is 32.1 µM (inactive); at Nonstructural protein 1, 2.39 µM (active); in [3], > 66 µM (inactive); in experiment [4], > 66 µM (inactive); in [5] it was 8.74 µM (active); in experiment [6], 2.83 µM (active). For the same compound, in the experiment with Vero, the CC50 is 4.93 µM (active).
As usually defined, the AC50 is the concentration giving half of the maximal activity seen. In the case of `O=C(c1ccc(Cl)cc1)N1CCN(c2ncccc2C(F)(F)F)CC1`, the AC50 with Candida albicans is 0.217 µM (active).
As for `CCCCN(C(C)=O)C1CC(=O)N(c2ccc(OCCC)cc2)C1=O` (stereo not drawn), the IC50 (in the experiment with HEK293; in experiment [1]) was > 67.5 µM (inactive) in each case.
For the compound `C[C@@H](CN1CCC(n2c(=O)[nH]c3cc(Br)ccc32)CC1)NC(=O)c1ccc(F)cc1`, the IC50 is 0.004 µM (active) at Phospholipase D1 and 0.34 µM (active) on Phospholipase D2.
Usually EC50 stands for the concentration at which the effect is half-maximal. As to `CCCCn1c(NC(=O)c2ccc(Br)o2)c(S(=O)(=O)c2ccccc2)c2nc3ccccc3nc21`, the IC50 at SUMO-activating enzyme [7] was 2.8 µM (active); on SUMO-activating enzyme [8] it was 10.6 µM (active); at SUMO E1/E2 it was 20.3 µM (active); at Genome polyprotein, 75.4 µM (active). In the experiment with Vero, the CC50 was > 40 µM (active). In addition, at Protein RecA, the concentration giving a half-maximal response (EC50) is 108 µM (inconclusive). Also, the AC50 in experiment [9] is 7.79 µM (active).
